Values joined by “and” are separate entries in the source; they are usually repeats but may differ in a detail not shown here. Identical values can stand only once. Like-named read-outs stand apart in the source and are kept apart here.
Experiments:
[1] = biological target: SARS-CoV-2 nsp10-nsp16 complex (Severe acute respiratory syndrome coronavirus 2, UniProt P0DTD1); test: biochemical
[2] = biological target: HCoV-229E nsp10-nsp16 complex (Human coronavirus 229E, UniProt P0C6X1); test: biochemical
Chain of HCoV-229E nsp10-nsp16 complex (P0C6X1 6459-6758 limits assumed): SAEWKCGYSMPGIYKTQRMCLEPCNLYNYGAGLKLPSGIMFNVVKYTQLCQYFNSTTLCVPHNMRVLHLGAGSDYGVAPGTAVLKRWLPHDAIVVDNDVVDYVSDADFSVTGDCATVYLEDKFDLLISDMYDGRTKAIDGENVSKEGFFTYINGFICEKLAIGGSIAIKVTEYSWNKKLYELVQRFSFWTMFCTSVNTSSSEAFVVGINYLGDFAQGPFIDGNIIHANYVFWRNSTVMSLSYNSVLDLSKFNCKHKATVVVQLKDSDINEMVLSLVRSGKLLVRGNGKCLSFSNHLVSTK
Chain of HCoV-229E nsp10-nsp16 complex (P0C6X1 3934-4068 partner limits assumed): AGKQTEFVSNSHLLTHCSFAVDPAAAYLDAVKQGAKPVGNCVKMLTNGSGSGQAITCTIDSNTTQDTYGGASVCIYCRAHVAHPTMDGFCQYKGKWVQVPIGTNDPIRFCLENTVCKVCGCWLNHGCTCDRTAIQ

[3] = biological target: HCoV-HKU1 nsp10-nsp16 complex (Human coronavirus HKU1, UniProt P0C6X3); test: biochemical
Chain of HCoV-HKU1 nsp10-nsp16 complex (P0C6X3 6854-7152 limits assumed): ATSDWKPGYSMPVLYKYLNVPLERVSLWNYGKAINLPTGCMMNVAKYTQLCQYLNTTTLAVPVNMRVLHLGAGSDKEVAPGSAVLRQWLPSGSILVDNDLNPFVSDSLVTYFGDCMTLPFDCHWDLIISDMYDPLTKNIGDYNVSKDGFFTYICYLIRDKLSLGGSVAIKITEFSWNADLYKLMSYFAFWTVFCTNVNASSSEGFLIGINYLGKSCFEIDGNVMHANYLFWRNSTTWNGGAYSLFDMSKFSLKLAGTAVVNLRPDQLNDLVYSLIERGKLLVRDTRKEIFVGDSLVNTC
Chain of HCoV-HKU1 nsp10-nsp16 complex (P0C6X3 4291-4427 partner limits assumed): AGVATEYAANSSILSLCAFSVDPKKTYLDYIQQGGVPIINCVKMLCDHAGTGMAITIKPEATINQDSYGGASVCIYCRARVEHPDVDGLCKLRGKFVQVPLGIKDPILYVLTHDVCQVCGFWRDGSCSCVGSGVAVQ

[4] = biological target: HCoV-OC43 nsp10-nsp16 complex (Human coronavirus OC43, UniProt P0C6X6); test: biochemical
Chain of HCoV-OC43 nsp10-nsp16 complex (P0C6X6 6797-7095 limits assumed): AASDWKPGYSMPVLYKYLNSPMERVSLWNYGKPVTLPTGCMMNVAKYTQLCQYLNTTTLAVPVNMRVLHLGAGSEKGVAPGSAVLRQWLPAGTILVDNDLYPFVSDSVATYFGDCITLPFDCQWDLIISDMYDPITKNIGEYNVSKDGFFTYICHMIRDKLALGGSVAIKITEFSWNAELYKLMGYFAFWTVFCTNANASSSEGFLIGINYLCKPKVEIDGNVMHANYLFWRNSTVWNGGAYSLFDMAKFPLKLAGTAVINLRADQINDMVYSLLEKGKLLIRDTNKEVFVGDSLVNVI
Chain of HCoV-OC43 nsp10-nsp16 complex (P0C6X6 4233-4369 partner limits assumed): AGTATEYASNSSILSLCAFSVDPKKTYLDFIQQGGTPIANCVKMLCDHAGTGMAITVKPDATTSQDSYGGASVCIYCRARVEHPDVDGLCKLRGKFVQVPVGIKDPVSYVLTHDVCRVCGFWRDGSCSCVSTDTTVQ

[5] = biological target: HCoV-NL63 nsp10-nsp16 complex (Human coronavirus NL63, UniProt P0C6X5); test: biochemical; type: biochemical
Chain of HCoV-NL63 nsp10-nsp16 complex (P0C6X5 6430-6729 limits assumed): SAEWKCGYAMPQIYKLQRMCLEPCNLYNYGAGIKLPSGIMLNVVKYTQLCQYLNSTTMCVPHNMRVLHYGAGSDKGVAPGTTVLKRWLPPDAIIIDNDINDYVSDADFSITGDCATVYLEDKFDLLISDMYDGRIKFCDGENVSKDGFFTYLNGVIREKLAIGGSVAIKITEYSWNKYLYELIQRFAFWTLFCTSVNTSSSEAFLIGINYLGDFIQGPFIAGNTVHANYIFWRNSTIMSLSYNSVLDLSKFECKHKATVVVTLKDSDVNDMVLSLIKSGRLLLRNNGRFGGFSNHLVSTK
Chain of HCoV-NL63 nsp10-nsp16 complex (P0C6X5 3909-4043 partner limits assumed): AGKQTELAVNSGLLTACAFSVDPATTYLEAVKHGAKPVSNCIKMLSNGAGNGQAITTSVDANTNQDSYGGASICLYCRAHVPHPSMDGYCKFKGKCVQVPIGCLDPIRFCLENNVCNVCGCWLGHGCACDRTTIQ

[6] = system: C[S+](CC[C@H](N)C(=O)[O-])C[C@H]1O[C@@H](n2cnc3c(N)ncnc32)[C@H](O)[C@@H]1O; test: purified protein, by the assay type; conditions: pH 7.5; 23.0 °C

For `Nc1ncnc2c1ncn2[C@@H]1O[C@H](CSCC[C@H](N)C(=O)O)[C@@H](O)[C@H]1O` [SAH, S-adenosylhomocysteine], the IC50 [1] was 2900 nM and 500 nM, the IC50 [2] was 900 ± 200 nM and the IC50 [3] was 200 ± 50 nM. For the same compound, the IC50 ([3]; IC50, HCoV-HKU1, substrate RNA N7mGpppACCCCC 0.3 μM, 2 μM 3H-SAM) was 2100 ± 100 nM, the IC50 [4] was 1400 ± 300 nM and the IC50 ([4]; IC50, HCoV-OC43, substrate RNA N7mGpppACCCCC 0.3 μM, 2 μM 3H-SAM) was 4400 ± 1200 nM. The “fold lower IC50 with N7mGpppAUUAAA versus N7mGpppACCCCC” value ([5]; HCoV-NL63) was 30 fold and the IC50 ([5]; IC50, HCoV-NL63, substrate RNA N7mGpppACCCCC 0.3 μM, 2 μM 3H-SAM) was 2400 ± 400 nM.
With “HCoV-229E nsp10-nsp16 complex (Human coronavirus 229E)” the Km [6] was 1.8 ± 0.2 µM.
“HCoV-HKU1 nsp10-nsp16 complex (Human coronavirus HKU1 (isolate N2))” was tested, and the Km [6] was 4.8 ± 1.2 µM and 2.3 ± 0.03 µM.
In the case of “HCoV-OC43 nsp10-nsp16 complex (Human coronavirus OC43)”, the Km [6] is reported as 7.1 ± 0.8 µM and 2.9 ± 0.4 µM.
In the case of “SARS-CoV nsp10-nsp16 complex (Severe acute respiratory syndrome-related coronavirus)”, the Km [6] is reported as 5.7 ± 1.1 µM and 2.6 ± 0.4 µM.
For “SARS-CoV-2 nsp10-nsp16 complex (Severe acute respiratory syndrome coronavirus 2)”, the Km [6] was 5.0 ± 0.7 µM and 2.8 ± 0.4 µM.
